Laboratory results reported in patent US20260166016A1, “GPR139 RECEPTOR AGONIST, PREPARATION METHOD THEREFOR, AND APPLICATION THEREOF” (NEUBO APPTECH CO., LTD., priority 2022, published 2026).

Test system: acutely restrained mice
Assay: Pentobarbital sodium sleep test in mice under acute restraint stress
Type: in vivo, mouse
Conditions: male C57BL/6J mice; gavage of 0.1, 0.5, 2.5 mg/mL solutions at 0.1 mL/10 g; 30 minutes later acute restraint for 3 hours; pentobarbital sodium 40 mg/kg i.p.; dose-dependent; FIG. 2
Text: Mouse: Male C57BL/6J; 8 weeks old; Weight: 20-25 g; Quantity: 31 pieces
Group 1, acute restraint sleeping placebo group, 7 mice, fed with regular care.
Group 2, acute restraint sleeping+low-dose of compound NRB181 group, 8 mice. The mice were fasted and deprived of water during the acute restraint period, and were kept normally at other times.
Group 3, acute restraint sleeping+moderate-dose of compound NRB181 group, 8 mice. The mice were fasted and deprived of water during the acute restraint period, and were kept normally at other times.
Group 4, acute restraint sleeping+high-dose of compound NRB181 group, 8 mice. The mice were fasted and deprived of water during the acute restraint period, and were kept normally at other times.
19.3.1 Preparation of placebo one day before the experiment: 0.5% CMC sodium+1% Tween80+saline.
On the day before the experiment, a high-dose solution of compound NRB181 was prepared: 6 mg of NRB181 was weighed and dissolved in 2.4 mL of placebo to prepare a 2.5 mg/mL solution of NRB181. Sonicated for 10 minutes and stored at 4° C. for later use.
The day before the experiment, a moderate-dose solution of compound NRB181 was prepared: […] of the above high-dose solution was taken and added to a 2 mL placebo centrifuge tube, mixed well, a 0.5 mg/mL NRB181 solution was prepared, sonicated for 10 minutes, and stored at 4° C. for later use. […]

**Q.** `C[C@H](NC(=O)CNC(=O)c1cc(Cl)ccn1)c1c(F)cccc1F` [NRB181] was tested. Which “sleep time of pentobarbital sodium anesthetized mice” value did it give?
**A.** significantly increased
